Assay: mn = molality of the nth substance listed, in mol/kg
Conditions: 101 kPa, Liquid; for viscosity: Capillary tube (Ostwald / Ubbelohde) method; for mass density: Vibrating tube method

CO/N=C(\C(=O)N[C@@H]1C(=O)N2C(C(=O)[O-])=C(CSc3nc(C)c(CC(=O)[O-])s3)CS[C@H]12)c1csc(N)n1.[Na+].[Na+] + O
Conditions	mass density [kg/m3]	viscosity [mPa·s]
278.15 K, m1 = 0.01	1002.35	1.551
278.15 K, m1 = 0.03	1006.68	1.609
278.15 K, m1 = 0.05	1010.63	1.667
278.15 K, m1 = 0.07	1014.39	1.724
278.15 K, m1 = 0.09	1018.03	1.783
278.15 K, m1 = 0.11	1021.6	1.839
278.15 K, m1 = 0.13	1025.13	1.9
278.15 K, m1 = 0.15	1028.54	1.962
283.15 K, m1 = 0.01	1002.07	1.33
283.15 K, m1 = 0.03	1006.36	1.381
283.15 K, m1 = 0.05	1010.27	1.431
283.15 K, m1 = 0.07	1014	1.479
283.15 K, m1 = 0.09	1017.61	1.529
283.15 K, m1 = 0.11	1021.14	1.577
283.15 K, m1 = 0.13	1024.59	1.63
283.15 K, m1 = 0.15	1027.97	1.682
288.15 K, m1 = 0.01	1001.45	1.153
288.15 K, m1 = 0.03	1005.68	1.197
288.15 K, m1 = 0.05	1009.58	1.24
288.15 K, m1 = 0.07	1013.27	1.282
288.15 K, m1 = 0.09	1016.85	1.326
288.15 K, m1 = 0.11	1020.33	1.367
288.15 K, m1 = 0.13	1023.74	1.413
288.15 K, m1 = 0.15	1027.06	1.458
293.15 K, m1 = 0.01	1000.53	1.016
293.15 K, m1 = 0.03	1004.71	1.055
293.15 K, m1 = 0.05	1008.6	1.094
293.15 K, m1 = 0.07	1012.24	1.13
293.15 K, m1 = 0.09	1015.8	1.169
293.15 K, m1 = 0.11	1019.24	1.206
293.15 K, m1 = 0.13	1022.59	1.246
293.15 K, m1 = 0.15	1025.89	1.285
298.15 K, m1 = 0.01	999.36	0.9017
298.15 K, m1 = 0.03	1003.52	0.9359
298.15 K, m1 = 0.05	1007.36	0.9694
298.15 K, m1 = 0.07	1010.99	1.002
298.15 K, m1 = 0.09	1014.51	1.036
298.15 K, m1 = 0.11	1017.91	1.069
298.15 K, m1 = 0.13	1021.27	1.104
298.15 K, m1 = 0.15	1024.52	1.14
303.15 K, m1 = 0.01	997.94	0.8062
303.15 K, m1 = 0.03	1002.05	0.8369
303.15 K, m1 = 0.05	1005.88	0.8669
303.15 K, m1 = 0.07	1009.48	0.8964
303.15 K, m1 = 0.09	1012.96	0.9263
303.15 K, m1 = 0.11	1016.34	0.9559
303.15 K, m1 = 0.13	1019.64	0.9862
303.15 K, m1 = 0.15	1022.89	1.019
308.15 K, m1 = 0.01	996.31	0.7252
308.15 K, m1 = 0.03	1000.43	0.7532
308.15 K, m1 = 0.05	1004.18	0.7799
308.15 K, m1 = 0.07	1007.75	0.8066
308.15 K, m1 = 0.09	1011.2	0.8336
308.15 K, m1 = 0.11	1014.55	0.8594
308.15 K, m1 = 0.13	1017.85	0.8867
308.15 K, m1 = 0.15	1021.04	0.9172
313.15 K, m1 = 0.01	994.47	0.6576
313.15 K, m1 = 0.03	998.57	0.682
313.15 K, m1 = 0.05	1002.27	0.707
313.15 K, m1 = 0.07	1005.83	0.7314
313.15 K, m1 = 0.09	1009.24	0.7559
313.15 K, m1 = 0.11	1012.57	0.7783
313.15 K, m1 = 0.13	1015.83	0.8042
313.15 K, m1 = 0.15	1018.99	0.8303
